For assay [1], the target named is Tumour suppressor p53/oncoprotein Mdm2 (Homo sapiens, UniProt Q00987). In words: Inhibition of human MDM2/P53 interaction by HTRF assay. Type of assay: protein assay.
For assay [2], the system named is HCT-116. The assay can be described thus: Inhibition of human p21 deficient HCT116 cell proliferation after 16 hrs by BrdU assay. Type of assay: functional, cell-based.
In assay [3] the test system is HCT-116. The assay can be described thus: Inhibition of human p53 deficient HCT116 cell proliferation after 16 hrs by BrdU assay. Type of assay: functional, cell-based.
In assay [4] the test system is HCT-116. The assay can be described thus: Induction of p21 mRNA in human HCT116 cells by RT-PCR. Type of assay: functional, cell-based.
The subject of assay [5] is HCT-116. The assay can be described thus: Inhibition of human HCT116 cell proliferation after 16 hrs by BrdU assay. Type of assay: functional, cell-based.
The next assay deals with SJSA-1. The assay can be described thus: Induction of apoptosis in human SJSA1 cells assessed as caspase 3/7 activity after 48 hrs. Type of assay: functional, cell-based.

SMILES strings stand for the structures. Activity calls are given as the source filed them. The calls are words filed in the database; no cut-off is given here. A value given as a limit tells only on which side of the number the result lay.

Tumour suppressor p53/oncoprotein Mdm2, sequence (P04637 whole entry): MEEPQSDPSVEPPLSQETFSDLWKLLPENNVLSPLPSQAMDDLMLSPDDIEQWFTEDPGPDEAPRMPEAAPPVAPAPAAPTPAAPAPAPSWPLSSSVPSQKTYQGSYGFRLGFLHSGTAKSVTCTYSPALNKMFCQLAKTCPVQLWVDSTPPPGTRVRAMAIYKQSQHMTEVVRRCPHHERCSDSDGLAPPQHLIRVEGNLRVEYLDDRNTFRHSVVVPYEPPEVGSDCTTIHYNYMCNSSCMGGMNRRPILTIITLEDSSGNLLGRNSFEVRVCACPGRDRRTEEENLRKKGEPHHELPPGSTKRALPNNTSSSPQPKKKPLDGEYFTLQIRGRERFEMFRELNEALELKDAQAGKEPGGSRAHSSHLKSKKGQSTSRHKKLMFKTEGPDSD
Tumour suppressor p53/oncoprotein Mdm2, sequence (Q00987 whole entry): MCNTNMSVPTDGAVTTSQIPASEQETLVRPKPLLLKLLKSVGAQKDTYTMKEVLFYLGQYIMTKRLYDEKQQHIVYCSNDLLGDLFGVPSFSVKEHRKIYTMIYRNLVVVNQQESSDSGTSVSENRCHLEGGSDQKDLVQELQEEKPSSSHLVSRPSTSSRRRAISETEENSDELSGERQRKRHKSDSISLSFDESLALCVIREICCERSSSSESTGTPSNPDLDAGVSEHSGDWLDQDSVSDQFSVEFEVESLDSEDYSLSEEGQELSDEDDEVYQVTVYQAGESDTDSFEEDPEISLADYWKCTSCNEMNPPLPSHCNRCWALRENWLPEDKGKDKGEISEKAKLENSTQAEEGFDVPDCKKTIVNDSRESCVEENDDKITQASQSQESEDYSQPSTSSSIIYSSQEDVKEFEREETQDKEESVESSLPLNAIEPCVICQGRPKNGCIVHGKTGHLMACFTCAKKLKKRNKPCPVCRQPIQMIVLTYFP

In assay [1], `CN1C2=C(C(c3ccc(Br)cc3)Oc3ccc(C#N)cc32)C(c2ccc(Br)cc2)n2ncnc21` (racemic) registered an IC50 of 3060 nM. As for `COc1ccc(C2=N[C@@H](c3ccc(Cl)cc3)[C@@H](c3ccc(Cl)cc3)N2C(=O)N2CCNC(=O)C2)c(OC(C)C)c1`, the result in the assay on HCT-116 [2] and in the assay with HCT-116 [3] was inactive. The Activity entry in the assay with HCT-116 [4] and in the assay on SJSA-1 was “Dose-dependent effect” in each case. For the same molecule, in the assay with HCT-116 [5], the outcome was Active.

Turning to `Cc1ccc(C2Oc3ccccc3C3=C2C(c2ccc(Br)cc2)n2ncnc2N3C)cc1` (racemic), it took 4630 nM to reach half-maximal inhibition in assay [1] (IC50). The same measure, in the same setting: for `CCOc1cccc2c1C1=C(C(c3ccc(Br)cc3)O2)C(c2ccc(Br)cc2)n2ncnc2N1C` (racemic) the value was 910 nM; for `CN1C2=C(C(c3ccc(Br)cc3)Oc3cc(Cl)ccc32)C(c2ccc(Br)cc2)n2ncnc21` (racemic), 15100 nM. Still for that read-out and setting: the same measure for `CN1C2=C(C(c3ccc(Br)cc3)Oc3c(Cl)cccc32)C(c2ccc(Br)cc2)n2ncnc21` (racemic): 3500 nM. As to `Cc1ccc2c(c1)C1=C(C(c3ccc(Br)cc3)O2)C(c2ccc(Br)cc2)n2ncnc2N1C` (single isomer, unassigned), the outcome in the assay on HCT-116 [2] and with HCT-116 [3] was inactive. The Activity entry in the assay on HCT-116 [4] and in the assay on SJSA-1 was “Dose-dependent effect” in each case. Also, the result in the assay with HCT-116 [5] was Active. `CCc1ccc(C2Oc3ccccc3C3=C2C(c2ccc(Br)cc2)n2ncnc2N3C)cc1` (racemic) showed an IC50 in assay [1] above 100000 nM. In the case of `CN1C2=C(C(c3ccc(Br)cc3)Oc3ccccc32)C(c2ccc(C#N)cc2)n2ncnc21` (racemic), the midpoint of inhibition in assay [1], the IC50, lay at 5840 nM. On the same count and under the same terms, for `Cc1cc2c(cc1F)OC(c1ccc(Br)cc1)C1=C2N(C)c2ncnn2C1c1ccc(Br)cc1` (racemic) the value was 480 nM; for `CN1C2=C(C(c3ccc(Br)cc3)Oc3cc(F)ccc32)C(c2ccc(Br)cc2)n2ncnc21` (racemic), 990 nM. On the same count and under the same terms, the same measure for `CN1C2=C(C(c3ccc(Br)cc3)Oc3cccc(F)c32)C(c2ccc(Br)cc2)n2ncnc21` (racemic): 1720 nM; for `CN1C2=C(C(c3ccc(C#N)cc3)Oc3ccccc32)C(c2ccc(Br)cc2)n2ncnc21` (racemic): 2080 nM; for `CN1C2=C(C(c3ccc(Cl)cc3)Oc3ccccc32)C(c2ccc(Cl)cc2)n2ncnc21` (racemic): 1210 nM.

Consider `CN1C2=C(C(c3ccc(Br)cc3)Oc3ccc(F)cc32)C(c2ccc(Br)cc2)n2ncnc21` (racemic), for which half-maximal inhibition in assay [1] (IC50) was put at 1730 nM. The IC50 values of the last two molecules are within 1.5-fold of each other.

`CN1C2=C(C(c3ccc(F)cc3)Oc3ccccc32)C(c2ccc(F)cc2)n2ncnc21` (racemic): the IC50 in assay [1] is 14800 nM. Against the preceding molecule, the IC50 is about 8.6-fold higher. Take `CC#Cc1ccc(C2Oc3ccccc3C3=C2C(c2ccc(Br)cc2)n2ncnc2N3C)cc1` (racemic): in assay [1], the concentration for half-maximal inhibition (IC50) turned out to be 9070 nM. Against the preceding molecule, the IC50 is about 1.6-fold lower. Same read-out and setting: for `CN1C2=C(C(c3ccc(Br)cc3)Oc3c(Cl)cc(Cl)cc32)C(c2ccc(Br)cc2)n2ncnc21` (racemic) the value was above 100000 nM. Molecule `CN1C2=C(C(c3ccc(Cl)cc3)Oc3ccccc32)C(c2ccc(Br)cc2)n2ncnc21` (racemic) gave a half-inhibitory concentration (IC50) in assay [1] of 890 nM. Still for that read-out and setting: the same measure for `COc1c(C)ccc2c1C1=C(C(c3ccc(Br)cc3)O2)C(c2ccc(Br)cc2)n2ncnc2N1C` (racemic): 3940 nM.

In assay [1], `CN1C2=C(C(c3ccc(Br)cc3)Oc3ccccc32)C(c2ccc(F)cc2)n2ncnc21` (racemic) displayed an IC50 of 1880 nM. Same read-out and setting: for `CN1C2=C(C(c3ccc(Br)cc3)Oc3ccc(Cl)cc32)C(c2ccc(Br)cc2)n2ncnc21` (racemic) the value was 1400 nM. Same read-out and setting: for `C#Cc1ccc(C2Oc3ccccc3C3=C2C(c2ccc(Br)cc2)n2ncnc2N3C)cc1` (racemic) the value was 2470 nM. Still for that read-out and setting: the same measure for `Cc1ccc(C2C3=C(c4ccccc4OC3c3ccc(Br)cc3)N(C)c3ncnn32)cc1` (racemic): 4740 nM. On to `Cc1ccc2c(c1)C1=C(C(c3ccc(Br)cc3)O2)C(c2ccc(Br)cc2)n2ncnc2N1C` (racemic), for which, in assay [1], it took 440 nM to reach half-maximal inhibition (IC50). On the same count and under the same terms, for `CN1C2=C(C(c3ccc(F)cc3)Oc3ccccc32)C(c2ccc(Br)cc2)n2ncnc21` (racemic) the value was 6570 nM; for `CCc1ccc2c(c1)C1=C(C(c3ccc(Br)cc3)O2)C(c2ccc(Br)cc2)n2ncnc2N1C` (racemic), 3200 nM.

The record behind these values is ChEMBL document CHEMBL1154659, “Discovery and optimization of chromenotriazolopyrimidines as potent inhibitors of the mouse double minute 2-tumor protein 53 protein-protein interaction” (J Med Chem, 2009).
